Reference: patent publication US5753661A, “Fused benzo compounds containing a nitrogen heterocycle for the treatment of central nervous system disorders” (priority 1992, dated 1998)
Like-named read-outs stand apart in the source and are kept apart here.

Legend:
5-HT1A receptor [1] = target: T1, 5-HT1A receptor (Rattus norvegicus, UniProt P19327); assay: Inhibition of 5-MeO-DMT-induced 5-HT syndrome in rats; type: in vivo, rat (male Wistar); set-up: Male Wistar rats (Mol:Wist) weighing 170-240 g are used; from tissue; host or cells: living male Wistar rat (Mol:Wist) (in vivo, endogenous receptor); details: sc, 5-MeO-DMT 5 mg/kg s.c., inhibition of piano playing
T1 sequence (P19327 1-422): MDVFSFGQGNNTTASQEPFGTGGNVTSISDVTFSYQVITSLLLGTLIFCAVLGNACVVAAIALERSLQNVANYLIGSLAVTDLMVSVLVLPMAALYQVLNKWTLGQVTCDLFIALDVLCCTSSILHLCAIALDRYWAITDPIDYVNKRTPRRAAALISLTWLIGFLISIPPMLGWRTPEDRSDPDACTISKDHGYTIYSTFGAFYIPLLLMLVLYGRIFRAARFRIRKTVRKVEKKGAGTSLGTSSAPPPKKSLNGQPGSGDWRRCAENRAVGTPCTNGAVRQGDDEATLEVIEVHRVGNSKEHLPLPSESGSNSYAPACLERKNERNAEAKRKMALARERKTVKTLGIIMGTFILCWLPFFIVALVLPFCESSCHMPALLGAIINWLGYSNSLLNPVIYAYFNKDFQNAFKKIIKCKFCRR
Description: Inhibition of 5-MeO-DMT-Induced 5-HT Syndrome in Rats
The so-called 5-HT syndrome is a characteristic pattern of behaviours which are induced by 5-HT agonists with effects on 5-HT, possibly 5-HT1A receptors (Smith, L. M. and Peroutka, S. J., Pharmacol. Biochem. & Behaviour, 1986, 24, 1513; Tricklebank, M. et al, Eur. J. Pharmacol. 1985, 117, 15). This test is a test for determining the antagonist effects of a test compound on 5-HT1A receptors in vivo by measuring the ability to inhibit 5-MeO-DMT induced 5-HT syndrome.
Male Wistar rats (Mol:Wist) weighing 170-240 g are used. Test substance is injected s.c. before 5-MeO-DMT 5 mg/kg, s.c. Four rats are used for each dose. A control group pretreated with saline is included each test day. 10, 15 and 20 min later the rats are observed for presence of serotonin (5-HT) syndrome. The following symptoms are recorded: 1) forepaw treading ("piano playing"), 2) head weaving and 3) hindleg abduction. Furthermore, flat motility is scored. Each part of the syndrome is scored as follows: marked effect (score 2), weak syndrome (score 1) and no effect (score 0). The scores of the three observation periods are added. Thus the maximum obtainable score for four rats is 24. The effect of the test substance is expressed as percent inhibition relative to the control group.
The percent inhibition of the piano playing syndrome is used as the response and ED50 value are calculated by log-probit analysis.

5-HT1A receptor [2] = target: T1, 5-HT1A receptor; assay: Generalization to the discriminative stimulus properties induced by 8-OH-DPAT in rats (8-OH-DPAT cue, agonism); type: in vivo, rat (male Wistar); set-up: from tissue; host or cells: living male Wistar rat (in vivo, endogenous receptor); details: for ED50: rat, sc, usually 30 or 45 min before test
Description: Generalization to the Discriminative Stimulus Properties Induced by 8-OH-DPAT in Rats
This test is used to determine the 5-HT1A receptor agonistic effect of a test compound in vivo. A related method is described by Tricklebank, M. D., supra; Amt, J. Pharmacology & Toxicology, 1989, 64, 165.
The per cent drug responce obtained for each dose of test compound is used to calculate ED50 values by log-probit analysis.

5-HT1A receptor [3] = target: T1, 5-HT1A receptor; assay: Inhibition of 3H-8-OH-DPAT binding to serotonin 5-HT1A receptors in rat brain in vitro; set-up: 5-HT1A receptors in membranes from rat brain minus cerebellum; from tissue; host or cells: rat brain minus cerebellum, membranes
Procedure: Inhibition of ^3 H-8-OH-DPAT Binding to Serotonin 5-HT1A Receptors in Rat Brain in vitro.
By this method the inhibition by drugs of the binding of the 5-HT1A agonist 3H-8-OH-DPAT (1 nM) to 5-HT1A receptors in membranes from rat brain minus cerebellum is determined in vitro . Accordingly, this is a test for affinity for the 5-HT1A receptor. The assay was performed as described by Hyttel et al., Drug Dev. Res. 1988, 15, 389-404.

5-HT1A receptor [4] = target: T1, 5-HT1A receptor; assay: Antagonism of the discriminative stimulus properties induced by 8-OH-DPAT in rats (8-OH-DPAT cue); type: in vivo, rat (male Wistar); set-up: from tissue; host or cells: living male Wistar rat (in vivo, endogenous receptor); details: sc, before 8-OH-DPAT 0.4 mg/kg i.p.
Procedure: Antagonism of the Discriminative Stimulus Properties Induced by 8-OH-DPAT in Rats.
This test is used to determine the 5-HT1A receptor antagonistic effect of a test compound in vivo. A related method is described by Tricklebank, M. D., et al, Eur. J. Pharmacol, 1987, 133, 47-56; Amt, J. Pharmacology & Toxicology, 1989, 64, 165.
Male Wistar rats are trained to discriminate between 8-OH-DPAT (0.4 mg/kg, i.p., 15 min pretreatment) and physiological saline in operant chambers equipped with two response levers. Between the levers a dipper is placed, where water rewards (0.1 ml) are presented. The rats are water deprived for at least 24 h and work in a fixed ratio (FR) schedule (final FR=32).
Following 8-OH-DPAT administration, responding is reinforced only on a designated (drug) lever, whereas responding on the opposite lever has no consequences. Following saline administration, responding is reinforced on the lever opposite to the drug lever. Drug and saline trials alternate randomly between days. The level of discrimination accuracy is expressed as the per cent drug responses and is calculated as the number of correct responses ×100 divided by the sum of the correct and incorrect responses before the first reward. The time to the first reward is also recorded as a measure of reaction time. When stable accuracy (mean correct responding=90%; individual rats at least 75% correct responding) is obtained test sessions are included between training days. Test compound is injected s.c. or p.o. at appropriate time before 8-OH-DPAT and the test begins 15 min after 8-OH-DPAT injection. The test trial is terminated when a total of 32 responses are made on either lever or when 20 min have elapsed. No reward is given and the rats have free access to water for 20-30 min after the test. The effects are expressed as per cent inhibition of drug responding. Only results from rats making at least 10 responses on one lever are included in data analysis. Furthermore, only test sessions in which at least half of the rats respond are included.
The per cent inhibition of drug response obtained for each dose of test compound is used to calculate ED50 values by log-probit analysis.

[5] = 3H-8-OH-DPAT 1 nM, membranes from rat brain minus cerebellum, read-out: IC50, 3H 8-OH-DPAT binding

| ED50 (5-HT1A receptor [1]) | ED50 (5-HT1A receptor [2]) | IC50 (5-HT1A receptor [3]; [5]) | Structure (SMILES) | other results |
| --- | --- | --- | --- | --- |
| 9.5 µmol/kg | 0.099 µmol/kg | 7.8 nM | O=S(=O)(CCCN1CCN(c2cccc3c2OCCO3)CC1)c1ccccc1 [Compound 1b, 1-(1,4-Benzodioxan-5-yl)-4-(3-phenylsulfonyl-1-propyl)piperazine] | – |
| 12 µmol/kg | 0.069 µmol/kg | 2.6 nM | O=S(=O)(CCCN1CCN(c2cccc3c2OCC3)CC1)C1CCCCC1 [Compound 1c, 1-(3-Cyclohexylsulfonyl-1-propyl)-4-(2,3-dihydrobenzofuran-7-yl)piperazine] | – |
| 0.47 µmol/kg | 0.052 µmol/kg | 1.1 nM | O=S(=O)(CCCN1CCN(c2cccc3c2OCCO3)CC1)C12CC3CC(CC(C3)C1)C2 [Compound 1f, 1-[3-(1-Adamantyl)sulfonyl-1-propyl]-4-(1,4-benzodioxan-5-yl)piperazine] | – |
| 0.78 µmol/kg | 0.036 µmol/kg | 0.92 nM | CC1(C)Cc2cccc(N3CCN(CCCCN4CCN(C5CCCCC5)C4=O)CC3)c2O1 [Compound 2bb, 1-Cyclohexyl-3-[4-[4-(2,3-dihydro-2,2-dimethylbenzofuran-7-yl)-1-piperazinyl]-1-butyl]-2-imidazolidinone] | – |
| 10 µmol/kg | – | – | O=C1N(CCN2CCN(c3cccc4c3OCCO4)CC2)CCN1C1CCCCC1 [Compound 2d, 1-[2-[4-(1,4-Benzodioxan-5-yl)-1-piperazinyl]ethyl]-3-cyclohexyl-2-imidazolidinone] | agonist activity/efficacy in words, 8-OH-DPAT cue (5-HT1A receptor [2]; 8-OH-DPAT cue model, s.c.): partial agonist; response, 8-OH-DPAT cue agonism (5-HT1A receptor [2]; at 0.08-19 μmol/kg, s.c. (note b)): 30-50%; ED50 (5-HT1A receptor [4]): 6.3 µmol/kg |
| 28 µmol/kg | 40 µmol/kg | 54 nM | O=C1N(CCN2CCN(c3cccc4c3OCC4)CC2)CCN1C1CCCC1 [Compound 2f, 1-Cyclopentyl-3-[2-[4-(2,3-dihydrobenzofuran-7-yl)-1-piperazinyl]ethyl]-2-imidazolidinone] | – |
| – | 2.3 µmol/kg | 12 nM | O=C1N(CCN2CCN(c3cccc4ccoc34)CC2)CCN1c1ccccc1 [Compound 2m, 1-[2-[4-Benzofuran-7-yl-1-piperazinyl]ethyl]-3-phenyl-2-imidazolidinone] | – |
| – | 0.13 µmol/kg | 3.2 nM | CC1(C)Cc2cccc(N3CCN(CCN4CCN(c5ccccc5)C4=O)CC3)c2O1 [Compound 2n, 1-[2-[4-(2,3-Dihydro-2,2-dimethylbenzofuran-7-yl)-1-piperazinyl]ethyl]-3-phenyl-2-imidazolidinone] | – |
| 4.2 µmol/kg | 1.1 µmol/kg | 3.7 nM | CC1(C)Cc2cccc(N3CCN(CCN4CCN(C5CCCC5)C4=O)CC3)c2O1 [Compound 2p, 1-Cyclopentyl-3-[2-[4-(2,3-dihydro-2,2-dimethylbenzofuran-7-yl)-1-piperazinyl]ethyl]-2-imidazolidinone] | – |
| 2.7 µmol/kg | – | 28 nM | O=C1N(CCN2CCN(c3cccc4[nH]ccc34)CC2)CCN1C1CCCC1 [Compound 2y, 1-Cyclopentyl-3-[2-[4-(4-indolyl)-1-piperazinyl]ethyl]-2-imidazolidinone] | ED50 (5-HT1A receptor [4]): 1.9 µmol/kg |
| 5.2 µmol/kg | 0.02 µmol/kg | 1.8 nM | [O-][S+](CCCN1CCN(c2cccc3c2OCCO3)CC1)C1CCCCC1 (stereo not shown) [Compound 3a, 1-(1,4-Benzodioxan-5-yl)-4-(3-cyclohexylthio-1-propyl)piperazine S-oxide] | – |
| 12 µmol/kg | 1.8 µmol/kg | 11 nM | O=c1n(CCN2CCN(c3cccc4c3OCCO4)CC2)ccn1-c1ccc(F)cc1 [Compound 5a, 1-[3-[4-(1,4-Benzodioxan-5-yl)-1-piperazinyl]-1-ethyl]-1,3-dihydro-3-(4-fluorophenyl)-2-imidazolone] | – |
| – | – | – | CC1(C)Cc2cccc(C3=CCN(CCCCN4CCN(C5CCCCC5)C4=O)CC3)c2O1 [Compound 10a, 1-Cyclohexyl-3-[4-[4-(2,3-dihydro-2,2-dimethylbenzofuran-7-yl)-1,2,3,6-tetrahydropyrid-1-yl]-1-butyl]-2-imidazolidinone] | IC50 (5-HT1A receptor [3]): 1.2 nM |
| – | – | 3.5 nM | CC1(C)Cc2cccc(C3CCN(CCCCN4CCN(C5CCCCC5)C4=O)CC3)c2O1 [Compound 11a, 1-Cyclohexyl-3-[4-[4-(2,3-dihydro-2,2-dimethylbenzofuran-7-yl)-1-piperidinyl]-1-butyl]-2-imidazolidinone] | – |
| – | – | 36 nM | O=c1n(CCN2CCN(c3cccc4c3OCCO4)CC2)c2ccccc2n1-c1ccc(F)cc1 [Compound 12a, 1-[2-[4-(1,4-Benzodioxan-5-yl)-1-piperazinyl]ethyl]-3-(4-fluorophenyl)-2(3H)-benzimidazolone] | – |
| – | – | 22 nM | O=c1n(CCCCN2CCN(c3cccc4c3OCCO4)CC2)c2ccccc2n1-c1ccc(F)cc1 [Compound 13a, 1-[4-[4-(1,4-Benzodioxan-5-yl)-1-piperazinyl]-1-butyl]-3-(4-fluorophenyl)-2(3H)-benzimidazolone] | – |
| – | – | 9.7 nM | O=C1N(CCN2CCN(c3cccc4cc(-c5ccccc5)oc34)CC2)CCN1C1CCCC1 [Compound 14a, 1-Cyclopentyl-3-[2-[4-(2-phenylbenzofuran-7-yl)-1-piperazinyl]ethyl]-2-imidazolidinone] | – |
| – | – | 38 nM | CC1(C)COc2c(N3CCN(CCN4CCN(C5CCCC5)C4=O)CC3)cccc21 [Compound 14b] | – |
| – | – | 7.5 nM | CC1(C)COc2c(N3CCN(CCCCCCN4CCN(C5CCCC5)C4=O)CC3)cccc21 [Compound 14c] | – |
| – | – | 22 nM | CC1(C)Cc2c(cccc2N2CCN(CCCN3CCN(C4CCCCC4)C3=O)CC2)O1 [Compound 14d] | – |
